Test results published in patent publication US20150290306A1, “COMPOSITIONS AND METHODS FOR DIAGNOSIS AND TREATMENT OF MALIGNANT GLIOMAS” (priority 2012, published 2015).

Assays:
PBMCs = test: PBMC culture with candidate peptides for 14 days, IFN-γ and IL-5 in supernatant by ELISA; assay type: cell-based, human; details: for IFN-γ/IL-5 ratio (geometric mean): peptide 10 μg/mL
From the text: Measurement of antigen-specific T cell responses in the peripheral blood in humans differs depending on whether responses are high affinity interactions with foreign (viral) epitopes or lower affinity interactions involving recognition of self-antigens. […] Given that T cell responses directed against MAGE and IL-13Rα2 antigens also involve T cells with low affinity to these self-antigens, antigen-specific responses were quantified based on cytokine secretion, as recently described in a phase I study of patients with MS (Viglietta V, et al: Neurology 2008, 71(12):917-924). Cytokine production was quantified by ELISA, defining a positive T cell response for each patient as the amounts of IFN-γ or IL-5 that were >50 pg/mL and two standard deviations above the mean cytokine levels secreted after stimulation of cells from that patient with negative control MBP peptide.
Twenty-five mL of blood from patients or healthy subjects was obtained under an IRB-approved protocol. All samples of blood from patients were taken at the time of surgery. […] All tumor-bearing patients received similar doses of steroids and anti-epileptic medications at the time of tumor debulking surgery prior to obtaining peripheral blood for these studies. T cell responses in patients with meningiomas controlled for influences of steroids on antigen responsiveness and cytokine balance. Tumor tissue was independently confirmed in all cases by formal pathological analysis. PBMCs were purified from heparinized blood by density gradient centrifugation using Ficoll-Hypaque (GE Healthcare Biosciences), and cells were then washed with PBS and viable cells quantified by trypan-blue staining.
Freshly isolated PBMCs were plated at 2×10^5 cells/well in 200 μl of serum-free X-VIVO15 (X15) media (Lonza) in 96-well round-bottom cell culture plates. Candidate peptides, in addition to a negative control peptide derived from MBP were added at a concentration of 10 μg/mL and anti-CD3 mAb was added at a concentration of 1 μg/mL. Six T cell cultures were established for each condition in each subject, and 100 IU/ml of IL-2 was added on the following day. Plates were incubated at 37° C. and 5% CO2 for 14 days, with media changed as needed, and the supernatant was harvested to evaluate T cell responses (cytokines) induced by each condition using ELISA. In a limited number (n=3) of patients, cytokine production was assessed after both 7 and 14 days. […] An IFN-γ ELISPOT assay was performed as previously described (Lv H, Havari E, et al: J Clin Invest, 121(4):1561-1573).
To detect T helper cell responses directed against the candidate peptides, IFN-γ and IL-5 were measured by ELISA using commercially available kits supplied by BD bioscience. IFN-γ was used as a prototypic Th1 cytokine and IL-5 was chosen as a prototypic cytokine released by Th2 cells because unlike IL-4 there would be no potential consumption by antigen-specific T cells in the culture conditions (Kourilsky P, Truffa-Bachi P: Trends Immunol 2001, 22(9):502-509).

DRB1*04 and *15 alleles = details: literature, Mycko et al. 2004; cited from earlier work

ENPVVHFFKNIVTPR [MBP85-99, reference compound]
mean cut-off for a positive cytokine response based on cytokine induced by control MBP peptide, IFN-γ (PBMCs; GBM patients): 123 pg/mL | mean cut-off for a positive cytokine response based on cytokine induced by control MBP peptide, IL-5 (PBMCs; GBM patients): 312 pg/mL | mean cut-off for a positive cytokine response based on cytokine induced by control MBP peptide, IFN-γ (PBMCs; healthy subjects): 895 pg/mL | HLA class II alleles shown to bind (experimental data) (DRB1*04 and *15 alleles): bind to both the DRB1*04 and *15 alleles

LLRFWLPFGFILILV [IL-13Ra2341-355]
positive wells among 6 primary T cell responses (IFN-γ or IL-5 ELISA) (PBMCs; Healthy Subject 2): + (+/++ cell=1-2 positive wells) | positive wells among 6 primary T cell responses (IFN-γ or IL-5 ELISA) (PBMCs; Healthy Subject 4): + (+/++ cell=1-2 positive wells) | positive wells among 6 primary T cell responses (IFN-γ or IL-5 ELISA) (PBMCs; Healthy Subject 5): ++++ (+++/++++ cell=3-4 positive wells) | positive wells among 6 primary T cell responses (IFN-γ or IL-5 ELISA) (PBMCs; Healthy Subject 6): + (+/++ cell=1-2 positive wells) | positive wells among 6 primary T cell responses (IFN-γ or IL-5 ELISA) (PBMCs; Meningioma 5): ++ (+/++ cell=1-2 positive wells) | positive wells among 6 primary T cell responses (IFN-γ or IL-5 ELISA) (PBMCs; Meningioma 6): + (+/++ cell=1-2 positive wells) | positive wells among 6 primary T cell responses (IFN-γ or IL-5 ELISA) (PBMCs; Primary GBM 1): + (+/++ cell=1-2 positive wells) | positive wells among 6 primary T cell responses (IFN-γ or IL-5 ELISA) (PBMCs; Primary GBM 2): ++ (+/++ cell=1-2 positive wells) | positive wells among 6 primary T cell responses (IFN-γ or IL-5 ELISA) (PBMCs; Primary GBM 3): +++++ (+++++/++++++ cell=5-6 positive wells) | positive wells among 6 primary T cell responses (IFN-γ or IL-5 ELISA) (PBMCs; Primary GBM 5): ++ (+/++ cell=1-2 positive wells) | positive wells among 6 primary T cell responses (IFN-γ or IL-5 ELISA) (PBMCs; Primary GBM 6): ++ (+/++ cell=1-2 positive wells) | positive wells among 6 primary T cell responses (IFN-γ or IL-5 ELISA) (PBMCs; Primary GBM 7): +++ (+++/++++ cell=3-4 positive wells) | positive wells among 6 primary T cell responses (IFN-γ or IL-5 ELISA) (PBMCs; Primary GBM 8): ++++ (+++/++++ cell=3-4 positive wells) | positive wells among 6 primary T cell responses (IFN-γ or IL-5 ELISA) (PBMCs; Recurrent GBM 1): ++ (+/++ cell=1-2 positive wells) | IFN-γ/IL-5 ratio (geometric mean) (PBMCs; healthy subjects): 1.6 | IFN-γ/IL-5 ratio (geometric mean) (PBMCs; patients with primary GBMs): 0.3 | IFN-γ/IL-5 ratio (geometric mean) (PBMCs; patients with recurrent GBMs): 0.02

LRKYRAKELVTKAEML [MAGE-A3121-136]
positive wells among 6 primary T cell responses (IFN-γ or IL-5 ELISA) (PBMCs; Healthy Subject 1): +++ (+++/++++ cell=3-4 positive wells) | positive wells among 6 primary T cell responses (IFN-γ or IL-5 ELISA) (PBMCs; Healthy Subject 2): + (+/++ cell=1-2 positive wells) | positive wells among 6 primary T cell responses (IFN-γ or IL-5 ELISA) (PBMCs; Healthy Subject 3): +++ (+++/++++ cell=3-4 positive wells) | positive wells among 6 primary T cell responses (IFN-γ or IL-5 ELISA) (PBMCs; Healthy Subject 4): + (+/++ cell=1-2 positive wells) | positive wells among 6 primary T cell responses (IFN-γ or IL-5 ELISA) (PBMCs; Healthy Subject 5): + (+/++ cell=1-2 positive wells) | positive wells among 6 primary T cell responses (IFN-γ or IL-5 ELISA) (PBMCs; Healthy Subject 6): + (+/++ cell=1-2 positive wells) | positive wells among 6 primary T cell responses (IFN-γ or IL-5 ELISA) (PBMCs; Meningioma 1): + (+/++ cell=1-2 positive wells) | positive wells among 6 primary T cell responses (IFN-γ or IL-5 ELISA) (PBMCs; Meningioma 2): +++ (+++/++++ cell=3-4 positive wells) | positive wells among 6 primary T cell responses (IFN-γ or IL-5 ELISA) (PBMCs; Meningioma 6): + (+/++ cell=1-2 positive wells) | positive wells among 6 primary T cell responses (IFN-γ or IL-5 ELISA) (PBMCs; Primary GBM 1): ++ (+/++ cell=1-2 positive wells) | positive wells among 6 primary T cell responses (IFN-γ or IL-5 ELISA) (PBMCs; Primary GBM 2): ++ (+/++ cell=1-2 positive wells) | positive wells among 6 primary T cell responses (IFN-γ or IL-5 ELISA) (PBMCs; Primary GBM 3): ++++ (+++/++++ cell=3-4 positive wells) | positive wells among 6 primary T cell responses (IFN-γ or IL-5 ELISA) (PBMCs; Primary GBM 4): ++ (+/++ cell=1-2 positive wells) | positive wells among 6 primary T cell responses (IFN-γ or IL-5 ELISA) (PBMCs; Primary GBM 5): ++++ (+++/++++ cell=3-4 positive wells) | positive wells among 6 primary T cell responses (IFN-γ or IL-5 ELISA) (PBMCs; Primary GBM 6): ++ (+/++ cell=1-2 positive wells) | positive wells among 6 primary T cell responses (IFN-γ or IL-5 ELISA) (PBMCs; Primary GBM 7): ++++ (+++/++++ cell=3-4 positive wells) | positive wells among 6 primary T cell responses (IFN-γ or IL-5 ELISA) (PBMCs; Primary GBM 8): ++ (+/++ cell=1-2 positive wells) | positive wells among 6 primary T cell responses (IFN-γ or IL-5 ELISA) (PBMCs; Recurrent GBM 1): ++ (+/++ cell=1-2 positive wells) | positive wells among 6 primary T cell responses (IFN-γ or IL-5 ELISA) (PBMCs; Recurrent GBM 3): + (+/++ cell=1-2 positive wells) | positive wells among 6 primary T cell responses (IFN-γ or IL-5 ELISA) (PBMCs; Recurrent GBM 4): + (+/++ cell=1-2 positive wells) | positive wells among 6 primary T cell responses (IFN-γ or IL-5 ELISA) (PBMCs; Recurrent GBM 5): + (+/++ cell=1-2 positive wells) | IFN-γ/IL-5 ratio (geometric mean) (PBMCs; healthy subjects): 8.1 | IFN-γ/IL-5 ratio (geometric mean) (PBMCs; patients with primary GBMs): 0.1 | IFN-γ/IL-5 ratio (geometric mean) (PBMCs; patients with recurrent GBMs): 0.06

WQYFFPVIFSKASSSLQL [MAGE-A3143-160]
positive wells among 6 primary T cell responses (IFN-γ or IL-5 ELISA) (PBMCs; Healthy Subject 1): +++ (+++/++++ cell=3-4 positive wells) | positive wells among 6 primary T cell responses (IFN-γ or IL-5 ELISA) (PBMCs; Healthy Subject 2): +++ (+++/++++ cell=3-4 positive wells) | positive wells among 6 primary T cell responses (IFN-γ or IL-5 ELISA) (PBMCs; Healthy Subject 3): + (+/++ cell=1-2 positive wells) | positive wells among 6 primary T cell responses (IFN-γ or IL-5 ELISA) (PBMCs; Healthy Subject 4): +++++ (+++++/++++++ cell=5-6 positive wells) | positive wells among 6 primary T cell responses (IFN-γ or IL-5 ELISA) (PBMCs; Healthy Subject 5): ++ (+/++ cell=1-2 positive wells) | positive wells among 6 primary T cell responses (IFN-γ or IL-5 ELISA) (PBMCs; Healthy Subject 6): + (+/++ cell=1-2 positive wells) | positive wells among 6 primary T cell responses (IFN-γ or IL-5 ELISA) (PBMCs; Meningioma 4): + (+/++ cell=1-2 positive wells) | positive wells among 6 primary T cell responses (IFN-γ or IL-5 ELISA) (PBMCs; Meningioma 6): + (+/++ cell=1-2 positive wells) | positive wells among 6 primary T cell responses (IFN-γ or IL-5 ELISA) (PBMCs; Meningioma 7): + (+/++ cell=1-2 positive wells) | IFN-γ/IL-5 ratio, recurrent GBM patients compared to primary GBM patients (PBMCs; P<0.05): significantly lower | positive wells among 6 primary T cell responses (IFN-γ or IL-5 ELISA) (PBMCs; Primary GBM 1): ++++ (+++/++++ cell=3-4 positive wells) | positive wells among 6 primary T cell responses (IFN-γ or IL-5 ELISA) (PBMCs; Primary GBM 2): +++ (+++/++++ cell=3-4 positive wells) | positive wells among 6 primary T cell responses (IFN-γ or IL-5 ELISA) (PBMCs; Primary GBM 3): + (+/++ cell=1-2 positive wells) | positive wells among 6 primary T cell responses (IFN-γ or IL-5 ELISA) (PBMCs; Primary GBM 4): + (+/++ cell=1-2 positive wells) | positive wells among 6 primary T cell responses (IFN-γ or IL-5 ELISA) (PBMCs; Primary GBM 5): + (+/++ cell=1-2 positive wells) | positive wells among 6 primary T cell responses (IFN-γ or IL-5 ELISA) (PBMCs; Primary GBM 6): + (+/++ cell=1-2 positive wells) | positive wells among 6 primary T cell responses (IFN-γ or IL-5 ELISA) (PBMCs; Primary GBM 7): ++ (+/++ cell=1-2 positive wells) | positive wells among 6 primary T cell responses (IFN-γ or IL-5 ELISA) (PBMCs; Primary GBM 8): +++++ (+++++/++++++ cell=5-6 positive wells) | positive wells among 6 primary T cell responses (IFN-γ or IL-5 ELISA) (PBMCs; Recurrent GBM 1): + (+/++ cell=1-2 positive wells) | positive wells among 6 primary T cell responses (IFN-γ or IL-5 ELISA) (PBMCs; Recurrent GBM 3): + (+/++ cell=1-2 positive wells) | positive wells among 6 primary T cell responses (IFN-γ or IL-5 ELISA) (PBMCs; Recurrent GBM 4): + (+/++ cell=1-2 positive wells) | IFN-γ/IL-5 ratio (geometric mean) (PBMCs; healthy subjects): 4.3 | IFN-γ/IL-5 ratio (geometric mean) (PBMCs; patients with primary GBMs): 0.3 | IFN-γ/IL-5 ratio (geometric mean) (PBMCs; patients with recurrent GBMs): 0.4
